# Calls of active or inactive are those of the source.
# Key:
# [1] = target: T1, Sentrin-specific protease 8 (Homo sapiens, UniProt Q96LD8); type: functional;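 also: luminescence read-out of SENP8 inhibition, dose-response confirmation following an ultra-high-throughput screen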
# T1 sequence (Q96LD8 whole entry): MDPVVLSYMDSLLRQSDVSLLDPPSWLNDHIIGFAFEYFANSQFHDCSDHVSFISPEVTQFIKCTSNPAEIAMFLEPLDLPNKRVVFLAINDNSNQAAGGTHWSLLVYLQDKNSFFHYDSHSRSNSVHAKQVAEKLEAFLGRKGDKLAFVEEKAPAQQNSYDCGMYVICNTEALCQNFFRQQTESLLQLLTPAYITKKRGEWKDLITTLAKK
# [2] = target: T2, Orexin/Hypocretin receptor type 1 (Homo sapiens, UniProt O43613); assay: Homogeneous Time Resolved Fluorescence (HTRF)-based cell-based high throughput dose response assay for antagonists of the orexin 1 receptor (OX1R; HCRTR1). [Related pubchem assays (depositor defined):AID434989, AID435008, AID463079, AID485270, AID492963, AID492964, AID492965, AID493232, AID504717, AID504718]; type: functional
# [3] = target: T2, Orexin/Hypocretin receptor type 1; assay: Fluorescence-based cell-based high throughput dose response assay for antagonists of the orexin 1 receptor (OX1R; HCRTR1). [Related pubchem assays (depositor defined):AID434989, AID435008, AID463079, AID485270, AID492963, AID492964, AID492965, AID493232, AID504717, AID504718]; type: functional
# Orexin receptor type 2 [4] = target: T3, Orexin receptor type 2 (Homo sapiens, UniProt O43614); assay: Counterscreen assay for antagonists of the orexin 1 receptor (OX1R; HCRTR1): Homogeneous Time Resolved Fluorescence (HTRF)-based cell-based dose response assay for antagonists of the orexin 2 receptor (OX2R; HCRTR2), run by assay provider.; type: functional
# [5] = (§1) Counterscreen for antagonists of the orexin 1 receptor (OX1R; HCRTR1): Fluorescence-based cell-based high throughput dose response assay to identify antagonists of the parental CHO cell line. [Related pubchem assays (depositor defined):AID434989, AID435008, AID463079, AID485270, AID492963, AID492964, AID492965, AID493232, AID504699, AID504701]; type: functional
# CHO-K1 = assay: as §1, with “Homogeneous time resolved fluorescence (HTRF)-based” for “Fluorescence-based”, “cell-based” for “cell-based high throughput”, “CHO-K1” for “CHO”; type: functional; settings: Cricetulus griseus;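 also: potency for inhibition of ATP-stimulated IP1 production as antagonists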
# Orexin receptor type 2 [6] = target: T3, Orexin receptor type 2; assay: Counterscreen assay for antagonists of the orexin 1 receptor (OX1R; HCRTR1): Fluorescence-based cell-based dose response assay for antagonists of the orexin 2 receptor (OX2R; HCRTR2), run by assay provider.; type: functional
# Caspase-3 = target: T4, Caspase-3 (Homo sapiens, UniProt P42574); type: functional;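 also: Dose-response selectivity test against caspase-3 for candidate inhibitors of sentrin-specific proteases (SENPs)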
# T4 sequence (P42574 whole entry): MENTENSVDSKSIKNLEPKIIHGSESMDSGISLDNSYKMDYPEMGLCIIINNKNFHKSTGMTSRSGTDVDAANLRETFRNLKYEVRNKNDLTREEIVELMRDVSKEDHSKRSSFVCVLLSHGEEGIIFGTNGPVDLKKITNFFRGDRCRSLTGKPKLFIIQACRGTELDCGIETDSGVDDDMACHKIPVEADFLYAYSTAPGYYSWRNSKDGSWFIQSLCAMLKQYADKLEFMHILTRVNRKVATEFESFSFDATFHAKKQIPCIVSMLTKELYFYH
# [7] = target: T5, Sentrin-specific protease 7 (Homo sapiens, UniProt Q9BQF6); type: functional;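 also: Luminescence-based dose-response confirmation of ultra-high-throughput screening hits, measuring inhibition of SENP7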
# T5 sequence (Q9BQF6 whole entry): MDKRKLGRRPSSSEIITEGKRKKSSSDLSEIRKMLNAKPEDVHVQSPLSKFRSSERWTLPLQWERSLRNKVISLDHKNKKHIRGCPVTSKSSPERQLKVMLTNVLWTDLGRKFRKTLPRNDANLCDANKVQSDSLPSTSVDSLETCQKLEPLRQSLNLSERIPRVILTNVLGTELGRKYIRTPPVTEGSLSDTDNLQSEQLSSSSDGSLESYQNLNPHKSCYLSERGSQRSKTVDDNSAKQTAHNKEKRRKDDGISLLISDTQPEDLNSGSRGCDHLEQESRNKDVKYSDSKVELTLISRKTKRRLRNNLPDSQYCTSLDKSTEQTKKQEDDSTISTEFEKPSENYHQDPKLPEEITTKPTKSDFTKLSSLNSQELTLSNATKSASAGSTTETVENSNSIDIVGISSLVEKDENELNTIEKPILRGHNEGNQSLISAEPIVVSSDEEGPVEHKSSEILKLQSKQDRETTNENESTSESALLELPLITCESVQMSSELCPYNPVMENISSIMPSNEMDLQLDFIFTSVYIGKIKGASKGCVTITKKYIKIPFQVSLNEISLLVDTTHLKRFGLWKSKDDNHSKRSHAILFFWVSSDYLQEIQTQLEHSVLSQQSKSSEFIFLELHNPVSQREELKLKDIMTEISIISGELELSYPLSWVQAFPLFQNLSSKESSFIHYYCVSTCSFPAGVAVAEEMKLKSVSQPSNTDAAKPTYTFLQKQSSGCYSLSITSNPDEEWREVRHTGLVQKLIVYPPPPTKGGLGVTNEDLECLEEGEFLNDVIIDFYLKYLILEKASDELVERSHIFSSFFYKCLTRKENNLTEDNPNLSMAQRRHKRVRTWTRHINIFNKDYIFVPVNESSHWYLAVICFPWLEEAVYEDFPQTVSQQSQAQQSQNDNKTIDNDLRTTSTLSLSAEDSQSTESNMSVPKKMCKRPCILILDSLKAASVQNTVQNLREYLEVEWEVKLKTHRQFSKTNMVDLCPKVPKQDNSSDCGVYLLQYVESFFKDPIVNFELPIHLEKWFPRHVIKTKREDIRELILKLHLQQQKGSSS
# [8] = target: T6, Sentrin-specific protease 6 (Homo sapiens, UniProt Q9GZR1); type: functional;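 also: Luminescence-based dose-response confirmatory assay of SENP6 inhibition, following up an ultra-high-throughput screen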
# T6 sequence (Q9GZR1 whole entry): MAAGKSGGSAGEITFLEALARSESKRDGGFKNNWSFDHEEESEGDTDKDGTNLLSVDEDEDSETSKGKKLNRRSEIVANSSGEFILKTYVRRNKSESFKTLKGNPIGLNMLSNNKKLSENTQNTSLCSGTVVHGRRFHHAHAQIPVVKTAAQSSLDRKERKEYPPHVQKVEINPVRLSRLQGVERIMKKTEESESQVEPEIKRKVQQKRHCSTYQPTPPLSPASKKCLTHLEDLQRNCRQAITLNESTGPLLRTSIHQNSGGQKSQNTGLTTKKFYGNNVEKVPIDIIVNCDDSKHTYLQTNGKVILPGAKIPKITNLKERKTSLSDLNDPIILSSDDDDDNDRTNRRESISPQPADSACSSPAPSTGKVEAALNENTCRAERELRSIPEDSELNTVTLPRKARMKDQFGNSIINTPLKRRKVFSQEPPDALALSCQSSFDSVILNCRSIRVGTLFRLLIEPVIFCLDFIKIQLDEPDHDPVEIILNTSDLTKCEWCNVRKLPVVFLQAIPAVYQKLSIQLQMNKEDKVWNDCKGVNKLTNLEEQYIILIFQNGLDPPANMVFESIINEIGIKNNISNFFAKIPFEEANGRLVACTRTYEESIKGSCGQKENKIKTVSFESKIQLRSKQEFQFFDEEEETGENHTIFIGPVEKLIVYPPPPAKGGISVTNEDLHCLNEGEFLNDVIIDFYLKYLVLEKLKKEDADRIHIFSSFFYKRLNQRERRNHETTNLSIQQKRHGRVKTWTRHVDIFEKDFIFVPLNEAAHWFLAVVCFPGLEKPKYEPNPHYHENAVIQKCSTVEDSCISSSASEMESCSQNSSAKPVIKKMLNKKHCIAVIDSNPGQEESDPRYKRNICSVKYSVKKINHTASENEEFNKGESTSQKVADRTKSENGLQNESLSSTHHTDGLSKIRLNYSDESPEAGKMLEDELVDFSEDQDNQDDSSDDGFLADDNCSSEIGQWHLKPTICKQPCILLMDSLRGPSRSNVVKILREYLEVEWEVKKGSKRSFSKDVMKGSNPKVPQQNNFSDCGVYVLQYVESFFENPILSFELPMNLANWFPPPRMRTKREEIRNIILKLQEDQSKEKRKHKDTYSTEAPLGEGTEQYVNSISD
# [9] = target: T7, High affinity choline transporter 1 (Homo sapiens, UniProt Q9GZV3); assay: CHT activators, dose response, cell-based, 10-point CRC, membrane potential dye (AID 602376); type: functional
# T7 sequence (Q9GZV3 whole entry): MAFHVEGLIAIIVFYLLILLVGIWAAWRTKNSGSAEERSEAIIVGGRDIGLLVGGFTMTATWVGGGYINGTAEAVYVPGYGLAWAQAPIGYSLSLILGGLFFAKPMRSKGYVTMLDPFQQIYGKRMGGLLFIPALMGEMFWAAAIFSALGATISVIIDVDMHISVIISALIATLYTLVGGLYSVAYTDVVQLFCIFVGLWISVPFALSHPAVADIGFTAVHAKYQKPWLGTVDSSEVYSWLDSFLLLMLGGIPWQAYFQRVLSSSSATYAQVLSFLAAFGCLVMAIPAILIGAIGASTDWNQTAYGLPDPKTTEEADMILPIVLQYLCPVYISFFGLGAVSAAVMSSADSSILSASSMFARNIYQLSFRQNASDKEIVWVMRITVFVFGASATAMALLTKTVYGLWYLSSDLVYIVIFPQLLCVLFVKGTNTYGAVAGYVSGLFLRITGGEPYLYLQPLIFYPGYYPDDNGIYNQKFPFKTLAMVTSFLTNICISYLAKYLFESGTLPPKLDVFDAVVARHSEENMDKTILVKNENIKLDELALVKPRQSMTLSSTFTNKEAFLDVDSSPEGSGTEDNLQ
# [10] = A cell-based HTS for delayed death inhibitors of the malarial parasite plastid Measured in Microorganism System Using Plate Reader - 2126-02_Inhibitor_Dose_DryPowder_Activity.; type: functional, organism-based
# [11] = A cell-based HTS for delayed death inhibitors of the malarial parasite plastid Measured in Microorganism System Using Plate Reader - 2126-01_Inhibitor_Dose_DryPowder_Activity.; type: functional, organism-based
# [12] = THP-1 cell cytotoxicity, dose response, cytotoxicity control, set 3 (AID 504852); type: functional; settings: Mycobacterium tuberculosis
# T3 sequence (O43614 whole entry): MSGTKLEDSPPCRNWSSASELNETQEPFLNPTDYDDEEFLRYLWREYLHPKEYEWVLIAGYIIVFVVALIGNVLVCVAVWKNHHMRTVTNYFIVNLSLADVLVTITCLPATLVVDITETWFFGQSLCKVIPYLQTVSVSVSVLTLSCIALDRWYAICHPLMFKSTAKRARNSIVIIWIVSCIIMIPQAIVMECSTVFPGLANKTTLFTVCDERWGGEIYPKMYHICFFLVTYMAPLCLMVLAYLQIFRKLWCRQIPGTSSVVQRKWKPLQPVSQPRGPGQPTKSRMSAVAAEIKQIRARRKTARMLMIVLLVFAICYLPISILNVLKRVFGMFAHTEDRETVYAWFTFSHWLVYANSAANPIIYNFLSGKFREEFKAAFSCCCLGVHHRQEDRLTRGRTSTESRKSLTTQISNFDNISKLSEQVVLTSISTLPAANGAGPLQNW
# T2 sequence (O43613 whole entry): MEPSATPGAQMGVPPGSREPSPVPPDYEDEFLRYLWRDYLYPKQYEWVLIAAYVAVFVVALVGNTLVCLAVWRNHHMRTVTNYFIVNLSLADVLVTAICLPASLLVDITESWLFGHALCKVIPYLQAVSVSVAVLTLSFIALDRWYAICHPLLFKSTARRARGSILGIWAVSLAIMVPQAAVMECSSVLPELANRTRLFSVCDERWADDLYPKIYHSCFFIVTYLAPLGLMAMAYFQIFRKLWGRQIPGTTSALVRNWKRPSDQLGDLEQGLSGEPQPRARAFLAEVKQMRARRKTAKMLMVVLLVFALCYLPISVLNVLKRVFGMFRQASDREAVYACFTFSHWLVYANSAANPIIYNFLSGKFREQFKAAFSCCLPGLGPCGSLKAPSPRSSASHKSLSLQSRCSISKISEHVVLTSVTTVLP
smiles,measurement,setting,value
COc1ccc(/C=C/c2n[nH]c(-c3ccccc3O)n2)cc1OC,IC50,[1],12.7 µM (active)
same,IC50,[2],2.51 µM (active)
same,IC50,[3],3.21 µM (active)
same,IC50,Orexin receptor type 2 [4],> 50 µM (inactive)
same,IC50,[5],> 49.8 µM (inactive)
same,IC50,CHO-K1,> 66.2 µM (inactive)
same,IC50,Orexin receptor type 2 [6],> 88.8 µM (inactive)
same,IC50,Caspase-3,58.8 µM (active)
same,IC50,[7],4.7 µM (active)
same,IC50,[8],13.6 µM (active)
CN(CC(=O)Nc1ccc(F)c(F)c1F)C(=O)c1cc(-c2ccncc2)nc2ccccc12,EC50,[9],14.6 µM (active)
CC(C)NC(=O)Nc1ccc2c(c1)C(=O)N([C@@H](C)CO)C[C@@H](C)[C@H](CN(C)S(=O)(=O)c1ccc(F)cc1)OCCCC[C@H](C)O2,AC50,[10],0.765 µM (active)
same,AC50,[11],0.71 µM (active)
CCC(Sc1nc2ccccc2c(=O)[nH]1)C(=O)NC1CCCCC1 (centres undefined),CC50,[12],> 100 µM (active)
